Data on 92 substances can be found in publication PMC10065799, “High-throughput profiling of sequence recognition by tyrosine kinases and SH2 domains using bacterial peptide display” (eLife, 2023).

Square brackets hold non-standard residues; d marks the D form. pY = N[C@@H](Cc1ccc(OP(=O)(O)O)cc1)C(=O)O

The target of one experiment is c-Src kinase domain (Homo sapiens, UniProt P12931). Kind of experiment: pTyr-Var library bacterial peptide display kinase screen (enrichment scores). The class given is biochemical. The settings on record: sheet "Src"; effect of the variant peptide relative to its reference peptide in the pTyr-Var library screen.
For QMVRMYASSFM [AVPR2_Y124_G122R_YF], the Screen was -2.32.
In turn, VMAALYGRLFE [BTD_Y536_T532M_YF] showed a Screen of 0.294.
The same measure, in the same setting: under SNKLTYGTVVF [ACOX1_Y275_M278V] stands 0.3111; under PNKAVYTKMMT [G6PD_Y401_E398K], -2.964; under LITTLYSGFLG [KCNQ1_Y267_I268S], 0.982.
On the same count and under the same terms, as for LNECHYGALIG [BPGM_Y92_R90C], the figure is 2.509; as for RNLLIYTEFGK [HGD_Y166_G161R], -0.2684.
The substance SDPIIYTLENV [ADGRE1_Y534_I539V] returned a Screen of -0.05563.
Substance GNLLIYTKFGK [HGD_Y166_E168K] displayed a Screen of -1.556.
Consider LGNIVYSSLCG [BCOR_Y90_P85L], for which the Screen is listed as 0.02175.
The same measure, in the same setting: as for KLADIYQAELR [GFAP_Y116_V115I], the figure is 1.355; as for RRNEIYEIKVD [LGR5_Y387_H383R], -0.9028.

Staying with this experiment, now noted: sheet "Src"; variant peptide versus its reference peptide in the pTyr-Var library screen.
On to PLDGEYFSLQI [TP53_Y327_T329S], for which the Screen amounted to 0.4244.
Substance ETELPYQELQG [TYROBP_Y91_S89L] gave a Screen of 0.7128.
The same measure, in the same setting: as for LNPLVYTLRNA [OR4C12_Y285_V283L], the figure is 0.901; as for DWRQEYVLNEP [TGM1_Y267_S272P], 0.4859.
Take TFGNLYGSRKQ [YIPF7_Y59_A54T_YF]: the Screen stood at 0.7296.
The same measure, in the same setting: as for RRIHSYRGRLW [VHL_Y112_H115R], the figure is -2.396; as for VFFDLYGGEKF [PTPN11_Y66_D61V_YF], -0.4607.
On the same count and under the same terms, under PFTDPYFDFEI [ZC3H18_Y371_A368T_YF] stands 0.4384; under DDEVFYSPLSL [OTC_Y317_R320L], 2.664; under DWQQEYVLNES [TGM1_Y267_R264Q], 1.018.
The same measure, in the same setting: under PNRILYGDFWQ [MYH7_Y715_R719W] stands -0.3786; under PRNLIYFGEHP [TRPV6_Y201_C197R], -3.508.
Consider LNPLFYSLRNK [OR5R1_Y290_I289F], for which the Screen is given as -4.245.
The substance ACCLLYHGDVV [TUBA4A_Y319_R320H] gave a Screen of -0.1128.
On the same count and under the same terms, under GVLDIYGFDIL [MYO1A_Y382_E385D] stands 0.6089; under PLDGEYFTLQV [TP53_Y327_I332V], -0.8668.
As for PLDGEYFTHQI [TP53_Y327_L330H], the Screen is reported as -1.246.
Same read-out and setting: as for MSRDVYSTDCF [NTRK2_Y702_Y706C_YF], the figure is -0.1963; as for SNKELYEKFMI [TTN_Y32175_T32171N_YF], 0.8077.
In turn, EDKFMYSEFPQ [PTEN_Y240_F241S] came in with a Screen of 0.2043.
On the same count and under the same terms, as for SSQTIYQRVEG [TFR2_Y23_V22I], the figure is 1.445.
As to GPQSLYNGLVA [UCP2_Y79_R76Q], the Screen was determined as 1.82.

Another experiment addresses T1, c-Abl kinase domain (Mus musculus, UniProt P00520).
T1 sequence (P00520 242-493 limits assumed): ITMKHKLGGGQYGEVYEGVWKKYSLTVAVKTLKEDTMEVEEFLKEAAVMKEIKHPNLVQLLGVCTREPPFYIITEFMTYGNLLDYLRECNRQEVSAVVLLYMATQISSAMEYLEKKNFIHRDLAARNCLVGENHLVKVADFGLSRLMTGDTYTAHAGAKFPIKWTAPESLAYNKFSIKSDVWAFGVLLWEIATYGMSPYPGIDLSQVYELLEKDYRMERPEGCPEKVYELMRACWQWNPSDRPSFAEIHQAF
The experiment is described as above. The following applies: fig5-data2, sheet "Abl"; Screen for the variant/reference peptide pair, pTyr-Var library. It is filed as biochemical.
ARVANYHRDGP [CAT_Y386_Q387H] had a Screen of 0.869.
The same measure, in the same setting: under NSFKFYMSDDI [ATRX_Y204_C200S_YF] stands 1.883.
Same read-out and setting: as for DLSEVYKPCRK [CCDC93_Y176_R179C], the figure is 0.05093; as for GRTGHYLCNAC [GATA1_Y223_D218G], 0.2005.
For VMAALYGRLFE [BTD_Y536_T532M_YF], the Screen was -0.5848.
On to SHSMRYFSTAV [HLA-C_Y31_D33S], for which the Screen worked out at 0.4242.
Same read-out and setting: under DLAHKYHGGGG [HBB_Y146_A141D] stands -0.5192.
FRTGHYLCNAC [GATA1_Y223_D218Y_YF] showed a Screen of 1.235.
SLMNQYVNKEF [RAB7A_Y28_K32E] came in with a Screen of 1.901.
In the case of PMQMPYDSRWE [PDGFRA_Y582_L580M], the Screen is on record as 0.7733.
On the same count and under the same terms, as for FDNSVYQKTTE [LDLR_Y828_P826S], the figure is 1.184; as for PVQAAYQKLVA [HBB_Y131_V134L], -1.01; as for EKQLLYLENKT [FRK_Y132_S133L], 1.576.
Still for that read-out and setting: as for TDHLQYFDSNK [ARAP1_Y359_R358Q], the figure is 1.336; as for GNLLIYTKFGK [HGD_Y166_E168K], 0.592.
Regarding AVEDQYFRVDC [FHL1_Y207_C209R_YF], the Screen was -2.172.
Still for that read-out and setting: as for KFFRVYQGQQP [MUTYH_Y494_V490F], the figure is -1.003.
In turn, QKPLGYFRVNL [GALE_Y104_D103G_YF] returned a Screen of -1.351.
Same read-out and setting: under PQGVSYIFTID [DCX_Y103_R102S_YF] stands -1.987; under REGAKYVSHDA [ASS1_Y113_G117D], 1.12.
Regarding LESETYRRLLD [KRT12_Y429_I426S], the Screen is on record as -1.592.
Same read-out and setting: under AGQEGYDRLRP [RAC1_Y64_D63G] stands -0.6801.
The substance ENFSEYQEISV [HEMGN_Y150_A154S] registered a Screen of 0.8508.
Still for that read-out and setting: under VCHELYNAIRD [PBRM1_Y54_T56A] stands -0.5103.
In turn, APAHKYHGGGG [HBD_Y146_L142P] had a Screen of 0.5925.
Same read-out and setting: under DTLLEYLENPK [CYCS_Y68_M66L] stands -1.313.
As for DLGIQYKVLKP [CTNNA1_Y177_A179V], the Screen was found to be 0.1591.
In turn, NDQANYLLNTD [ADA_Y290_S291L] showed a Screen of -1.65.
The substance GDAMLYFPSVS [GPR143_Y177_A173D_YF] returned a Screen of 0.9829.
Still for that read-out and setting: under ALPGEYIPTVF [RAC1_Y32_F28L] stands -1.258; under GRSTFYWPSPR [GAGE12J_Y10_R13S_YF], -1.338.
Still for that read-out and setting: under “Ac-QSLEKS[pY]ELLDGG-NH2 [ACTB_Y240_P243L]” stands -1.856.

The same experiment, now with this note: sheet "Abl"; effect of variant peptide relative to its reference peptide in pTyr-Var library screen (enrichment).
The substance ETCLAYMEKRI [TEKT1_Y118_R119M] came in with a Screen of -0.666.
In the case of TFGNLYGSRKQ [YIPF7_Y59_A54T_YF], the Screen is -3.299.
On the same count and under the same terms, as for TTKGAYSLSVR [YES1_Y194_I198V], the figure is 2.19; as for TVLWQYTGTRP [UGT1A1_Y337_R336Q], 0.7115.
As for LTDLRYKVSGP [TTN_Y22641_L22646P], the Screen is recorded as -1.764.
For the substance TVLWLYTGTRP [UGT1A1_Y337_R336L], the Screen stood at 0.619.
On the same count and under the same terms, under VHKKGYNKLNQ [ZNF676_Y98_E96K] stands 1.586; under KSVEEYANCHL [TF_Y593_P589S], 0.8616; under TLLPDYEDEEE [ZNF830_Y159_S154T], 2.994.
In the case of ESMQSYDLDFP [UNC13B_Y243_D238E_YF], the Screen stood at 0.2086.
On the same count and under the same terms, under KKFPDYIQIAR [SGMS2_Y59_M64R_YF] stands 1.322.
As to KPGLIYNKVNP [SPRED3_Y72_V71I], the Screen is given as -0.1763.
Substance MKGEFYRFLAE [YWHAG_Y131_D129E_YF] gave a Screen of 2.42.
Same read-out and setting: under KACKHYLTKRT [ZBTB5_Y118_T121K] stands -3.546; under VLALWYFFLTN [ZDHHC23_Y127_H132N_YF], -3.327.
Consider FNDSAYNQQLI [ZPLD1_Y198_T197A_YF], for which the Screen stood at 1.136.
The same measure, in the same setting: under KNSSIYVVANI [VNN1_Y134_N131S] stands 4.539.

Another experiment concerns Fer kinase domain. Described as above. The class given is biochemical, mouse. The settings on record: sheet "Fer"; value of the variant peptide against its reference peptide in the pTyr-Var library screen with Fer.
In turn, KLPDAYEPLIL [G6PD_Y437_R439P] registered a Screen of 1.978.
On the same count and under the same terms, under VASMFYTLVIP [OR8K3_Y277_I275M] stands 0.3514.
Same read-out and setting: as for EGNEQYEGFCV [GRIA3_Y451_R450Q_YF], the figure is 2.326.
Turning to PNKAVYTKMMT [G6PD_Y401_E398K], the Screen is given as -3.207.
On the same count and under the same terms, under KGNMFYENSFA [EGFR_Y113_R108K_YF] stands -0.4996; under GHLFAYNWISI [BEST1_Y227_D228N_YF], -1.638.
The substance SDPIIYTLENV [ADGRE1_Y534_I539V] returned a Screen of -0.559.
Same read-out and setting: under DDEVFYSPLSL [OTC_Y317_R320L] stands 2.858; under LGNIVYSSLCG [BCOR_Y90_P85L], 0.7069.
Still for that read-out and setting: under RREWFYEVIIA [BACE1_Y260_V265A_YF] stands -1.406; under LTMAPYSSVSV [FAM81A_Y24_L29V], 0.5529.

The experiment is the same for the next values; noted with them: sheet "Fer"; variant peptide relative to its reference peptide, pTyr-Var library screen enrichment.
Substance ACCLLYHGDVV [TUBA4A_Y319_R320H] had a Screen of 1.239.
Still for that read-out and setting: under SNKELYEKFMI [TTN_Y32175_T32171N_YF] stands 0.5633.

A further experiment relates to EPHB1 kinase domain. The experiment is described as above. The class given is biochemical, human. The settings on record: sheet "EPHB1"; variant seq vs reference seq; bacterial peptide display enrichment.
Consider VMLENYSNLLS [ZFP69_Y109_V113L], for which the “Screen (variant relative to reference peptide, measured in the pTyr-Var library screen)” value is 0.4122.
Same read-out and setting: under RRIHSYRGRLW [VHL_Y112_H115R] stands -0.8094.
Same read-out and setting: under KKFPDYIQIAR [SGMS2_Y59_M64R_YF] stands -0.1665.
In the case of PLDGEYFTLQV [TP53_Y327_I332V], the “Screen (variant relative to reference peptide, measured in the pTyr-Var library screen)” value was -0.1216.
For SSQTIYQRVEG [TFR2_Y23_V22I], the “Screen (variant relative to reference peptide, measured in the pTyr-Var library screen)” value amounted to 1.306.
On the same count and under the same terms, under CLGNQYVNVMN [SLC3A1_Y461_R456C] stands -0.4562.

The same experiment, now with this note: sheet EPHB1; effect of the variant peptide relative to its reference peptide in the pTyr-Var library screen (enrichment scores).
LIFTNYEVGKD [GSTP1_Y112_A114V_YF]: the Screen turned out to be 1.043.
On to RNLLIYTEFGK [HGD_Y166_G161R], for which the Screen is given as 0.6934.
Still for that read-out and setting: under GNLLIYTKFGK [HGD_Y166_E168K] stands -0.9666; under LNPLFYSLRNK [OR5R1_Y290_I289F], -2.165.
The same measure, in the same setting: as for ENFSEYQEISV [HEMGN_Y150_A154S], the figure is 0.04896; as for DNLSNYVFQGQ [GRIN2A_Y978_N976S], 0.2649; as for WCSNDYLGMSQ [ALAS2_Y199_R204Q], 0.6712.
